Reference: ChEMBL document CHEMBL3988442, “University of Dundee, Small-Polar-MMV Screening Library” (2021)

How the values were obtained:
[1] = microbe, parasite or virus in culture; details: Mycobacterium tuberculosis, 96 h, read-out: pIC50 (converted)
[2] = microbe, parasite or virus in culture; details: Mycobacterium tuberculosis, 72 h, read-out: pIC50 (converted)

| SMILES | IC50 [1] | IC50 [2] |
| --- | --- | --- |
| N#CCCN1CCCN(c2ccc(C#N)cc2)CC1 | 262 µM | 232 µM |
| COC(=O)C(C)OC(=O)c1cccnc1SC (stereo not drawn) | > 501 µM | > 501 µM |
| COC(=O)c1ccc(COc2ccccc2CO)o1 | 250 µM | 230 µM |
| Cc1ccc(C(C)(C)CN(C)C(=O)CCN)cc1 | > 501 µM | 64.1 µM |
| O=C(Nc1cccnc1N1CCC(CO)CC1)C1CC1 | 53.6 µM | > 501 µM |
| NCCC1CN(Cc2cc3ccccc3s2)CCO1 (stereo not drawn) | 332 µM | 308 µM |
| CC(C)CCn1ccc(NC(=O)C2(O)CCC2)n1 | 331 µM | 308 µM |
| Cn1ccc(CNC(=O)NCC2CC2)c1 | > 501 µM | > 501 µM |
| COc1ccc(OC)c(CNc2nc(C)nn2C)c1 | > 501 µM | 199 µM |
| N#Cc1ccccc1N1CCCC(N)C1 (stereo not drawn) | 142 µM | 79.7 µM |
| O=C(NCc1cccs1)c1cnsn1 | 17.4 µM | 3.61 µM |
| CNS(=O)(=O)c1ccc(C(=O)NCc2ccccc2)o1 | > 501 µM | 151 µM |
| COc1cccc(Nc2ccc(N)nc2)c1 | 241 µM | 128 µM |
| CN(C)S(=O)(=O)N(CCO)Cc1ccc(Cl)c(Cl)c1 | 308 µM | 216 µM |
| CC1(C)CN(C(=O)c2cc(Br)c[nH]2)CCO1 | 290 µM | 136 µM |
| CC(C)Oc1ccc(S(=O)(=O)N2CCC(N)C2)cc1 (stereo not drawn) | > 501 µM | 212 µM |
| COc1ccc(CN(C)C(=O)C2CC2)cc1F | 255 µM | 211 µM |
| CSCC(C)(O)CNc1nnnn1-c1ccccc1 (stereo not drawn) | 290 µM | 306 µM |
| CCCC(C)CS(=O)(=O)NCc1ccncc1 (stereo not drawn) | 123 µM | 115 µM |
| Nc1nnc(SCc2coc(-c3ccccc3)n2)[nH]1 | > 501 µM | > 501 µM |
| CN(Cc1ccc(Br)o1)C(=O)c1nccnc1N | 414 µM | 210 µM |
| O=C(NCCSC1CCCC1)c1ccccn1 | > 501 µM | 173 µM |

| SMILES | IC50 [1] | IC50 [2] |
| --- | --- | --- |
| CN(C)S(=O)(=O)NC1CCCOc2c(Cl)cccc21 (stereo not drawn) | > 501 µM | > 501 µM |
| CC(=O)N1CCN(Cc2cc(Br)c3c(c2)OCO3)CC1 | 394 µM | > 501 µM |
| CC1(C)CNCCC(=O)C1 | 246 µM | 259 µM |
| CCN(CCn1cccn1)C(=O)c1cc(C(C)C)no1 | > 501 µM | > 501 µM |
| O=S1(=O)CCCN1CCNc1ncc(Cl)cc1Cl | > 501 µM | 111 µM |
| CN(C1(C#N)CCC1)S(=O)(=O)c1ccccc1 | > 501 µM | > 501 µM |
| CNC(=O)NC(=O)CCN1CCc2ccccc2C1 | 201 µM | 196 µM |
| Cc1c(Br)cccc1S(=O)(=O)NCCN | > 501 µM | 212 µM |
| CN(Cc1c(F)cccc1Cl)C(=O)CNC(=O)C1CC1 | 71 µM | 237 µM |
| CCC1(NC(=O)c2coc(S(=O)(=O)N(C)C)c2)CCC1 | > 501 µM | > 501 µM |
| O=C(NCCc1cccnc1)c1cc(C2CC2)on1 | > 501 µM | > 501 µM |
| CC(C)(C)OC(=O)c1ncccc1N | 265 µM | > 501 µM |
| COCCn1nnc(-c2cccc(OC)c2)n1 | 42.2 µM | 43.7 µM |
| OC1(CNc2nc(-c3ccccc3)ns2)CCSC1 (stereo not drawn) | 256 µM | 279 µM |
| COc1cc(CNC(=O)Nc2ccnc(C)c2)ccn1 | 98.2 µM | 100 µM |
| Cc1cc(Br)cc2cc(C(=O)NC(C)(CO)CO)oc12 | 285 µM | 369 µM |
| CNCCCNC(=O)CCc1ccc(F)cc1 | > 501 µM | > 501 µM |
| CN(C)C(CN)C1CCCCC1 (stereo not drawn) | 252 µM | 279 µM |
| O=c1[nH]cnc2cccc(O)c12 | > 501 µM | > 501 µM |
| Cc1cc(C(=O)N2CCN(Cc3ccsc3)CC2)[nH]n1 | 156 µM | 90.5 µM |
| CN(Cc1ccc(Br)s1)CC(O)COCCO (stereo not drawn) | 165 µM | 236 µM |
| CSCCC(CO)NC(=O)c1occc1C(C)C (stereo not drawn) | > 501 µM | 258 µM |

| SMILES | IC50 [1] | IC50 [2] |
| --- | --- | --- |
| O=C(NCCO)c1cc2c(F)cc(Br)cc2[nH]1 | > 501 µM | 257 µM |
| CCOCCC(=O)N1c2ccccc2OCC1C (stereo not drawn) | > 501 µM | 97.6 µM |
| CN(Cc1ccc(O)cc1)C(=O)c1cc(Cl)c[nH]1 | 187 µM | 173 µM |
| CN(C)S(=O)(=O)NCCNc1cccc(Br)c1 | 208 µM | 154 µM |
| NCCCc1nc2ccccc2o1 | 255 µM | 211 µM |
| COC(=O)c1cccc(OCC(O)C(F)(F)F)c1 (stereo not drawn) | > 501 µM | > 501 µM |
| CNc1nc(NCCS(C)(=O)=O)ncc1Br | > 501 µM | > 501 µM |
| CCS(=O)(=O)NCC(N)c1ccc(C(C)C)cc1 (stereo not drawn) | 211 µM | 85.8 µM |
| COCCCN(C)S(=O)(=O)c1ccc(Br)cn1 | 206 µM | 278 µM |
| CCNC(=O)CNc1cc(C)c(Cl)cc1OC | > 501 µM | 135 µM |
| Cc1cc(C(=O)NCCCN(C)CC(F)(F)F)no1 | > 501 µM | > 501 µM |
| NCC1CCN(CCc2ccccc2)C1 (stereo not drawn) | 213 µM | 209 µM |
| Fc1cc(Cl)cnc1N1CCCNCC1 | > 501 µM | 34.3 µM |
| NCc1noc(-c2ccc(Cl)cc2F)n1 | 242 µM | 277 µM |
| CCN(CCC(N)=O)Cc1cccc2c1OCO2 | 272 µM | 258 µM |
| N#CC1(C(=O)N2CCc3sccc3C2)CCCC1 | 167 µM | 475 µM |
| COc1cccc(-c2ncc(CN)s2)c1 | 282 µM | 161 µM |
| CCNCc1ccc2c(c1)OCO2 | > 501 µM | 280 µM |
| CC(CCc1ccc(O)cc1)NC1(CO)CC1 (stereo not drawn) | > 501 µM | 199 µM |
| NCC(=O)N(Cc1cccs1)Cc1cccs1 | 68.7 µM | 114 µM |
| CN(Cc1ccco1)C(=O)CN1CCc2sccc2C1 | 89.2 µM | 60 µM |
| Cc1ccc(S(=O)(=O)NC(CN)C2CC2)c(F)c1 (stereo not drawn) | > 501 µM | > 501 µM |

| SMILES | IC50 [1] | IC50 [2] |
| --- | --- | --- |
| CNC(=O)NC(=O)C(C)Nc1cccc(C)c1 (stereo not drawn) | 190 µM | 201 µM |
| N#Cc1ccc(NC(=O)Cn2ccnc2)cc1 | > 501 µM | > 501 µM |
| Cc1cnc(N2CCC(O)CC2)c(Br)c1 | > 501 µM | > 501 µM |
| CN1Cc2cc(-c3csc(N)n3)ccc2NC1=O | > 501 µM | > 501 µM |
| COC(=O)C1CCN(C(=O)Cc2cccc(F)c2)CC1 | > 501 µM | 179 µM |
| COc1ccccc1C(N)c1ccccn1 (stereo not drawn) | 453 µM | 233 µM |
| CCc1cccc(S(=O)(=O)N2CC[C@H](N)C2)c1 | > 501 µM | 183 µM |
| COC(=O)N1CC(NC(=O)c2cc(C(C)=O)c[nH]2)C1 | > 501 µM | > 501 µM |
| COc1cccc2c1CCNCC2 | 348 µM | 271 µM |
| COCCNC(=O)Nc1ccc2c(c1)OC(C)(C)O2 | 170 µM | 65.7 µM |
| CCc1ncc(C(=O)N2CCN(c3nccs3)CC2)s1 | > 501 µM | 79.4 µM |
| c1ccc(OCCCOC2CNC2)cc1 | > 501 µM | 177 µM |
| CCCNc1nnc(SC2CCOC2)s1 (stereo not drawn) | 70.9 µM | 259 µM |
| CC(=O)NCC1CN(c2ncccc2F)CCO1 (stereo not drawn) | 210 µM | 243 µM |
| FC(F)COCCn1nnc(-c2ccsc2)n1 | 56.4 µM | 255 µM |
| Cc1nn(C)c2nc(NCCSc3ncn[nH]3)sc12 | > 501 µM | > 501 µM |
| COCC(C)NC(=O)CNc1ccc(OC)c(Br)c1 (stereo not drawn) | 184 µM | 172 µM |
| CN(CC(=O)Nc1ccsc1)C(=O)c1ccco1 | > 501 µM | > 501 µM |
| N#CCCCn1nnc(-c2ccccc2)n1 | 178 µM | 191 µM |
| COc1ccc(Cl)c(S(=O)(=O)NCCC(C)N)c1 (stereo not drawn) | 187 µM | 116 µM |
| Brc1cc2c(cc1CN1CCCNCC1)OCO2 | 460 µM | 112 µM |
| CCOC(=O)C(C)Nc1ccc2oc(=O)[nH]c2c1 (stereo not drawn) | 292 µM | 311 µM |

| SMILES | IC50 [1] | IC50 [2] |
| --- | --- | --- |
| Nc1ccc(CNc2nc(C3CC3)ns2)cn1 | > 501 µM | > 501 µM |
| CCC(C)Oc1cc(C(=O)NCC2(O)CCC2)ccn1 (stereo not drawn) | 29.6 µM | 62.8 µM |
| CCCN(CCC)S(=O)(=O)N1CCC2(CC1)OCCO2 | > 501 µM | 149 µM |
| CC(C)(C)c1ccc2c(c1)C(N)C(=O)N2 (stereo not drawn) | 260 µM | 377 µM |
| CCCc1nnc(N2CCC3(CC2)OCC(C)O3)s1 (stereo not drawn) | 45.5 µM | 34.3 µM |
| NC(=O)CN(Cc1ccc(Br)cc1)C(=O)c1ccco1 | > 501 µM | 427 µM |
| CN(C)C(C)(C)CNC(=O)NCCC1CCCCO1 (stereo not drawn) | > 501 µM | > 501 µM |
| O=C(NCCO)c1ccc(OCc2cccs2)cc1 | > 501 µM | 378 µM |
| CC(C)c1cccc(S(=O)(=O)N(C)Cc2nnc[nH]2)c1 | > 501 µM | > 501 µM |
| Cc1cc2nc(CN)[nH]c2cc1C | > 501 µM | 148 µM |
| O=C1NC(=O)c2c(O)cccc21 | 254 µM | 196 µM |
| CC(Cn1c(=O)[nH]c2ccccc2c1=O)N1CCCC1 (stereo not drawn) | 111 µM | 63.1 µM |
| CC(C)Cc1ccc(CS(=O)(=O)CCO)cc1 | 83.5 µM | 353 µM |
| CC(C)c1csc(C(=O)N2CCOc3ncccc32)n1 | 231 µM | 139 µM |
| CC(C)Cc1cc(C(=O)NCC(O)C(F)(F)F)[nH]n1 (stereo not drawn) | 160 µM | 183 µM |
| CC(C)C(=O)NCCCNC(=O)c1ccc(F)cc1O | > 501 µM | 125 µM |
| CN(CCc1ccc(Br)cc1)C(=O)CCCN | > 501 µM | 179 µM |
| CSc1c(F)cc(NC(=O)NCCO)cc1F | > 501 µM | > 501 µM |
| COCCN(C)C(=O)Nc1cccc(Cl)c1 | 282 µM | > 501 µM |
| NCc1cc(Oc2cccc(F)c2)ccn1 | > 501 µM | 45.4 µM |
| N#CCC1(O)CN(S(=O)(=O)C=Cc2ccc(Cl)cc2)C1 | > 501 µM | 287 µM |
